Reference: patent publication US20240116985A1, “STAPLED PEPTIDES AND METHODS THEREOF” (priority 2020, published 2024)

How the values were obtained:
[1] = biological target: T1, beta-catenin/TCF4 engagement (Homo sapiens, UniProt P35222); assay: Nano-BRET target engagement assay (B-cat-Halo & TCF4-Luc in HEK293 cells); format: cell-based; conditions: absolute IC50; read-out: NanoBRET Abs IC50
T1 construct: expressed in transfected cells; host or cells: HEK293
T1 sequence (P35222 1-781): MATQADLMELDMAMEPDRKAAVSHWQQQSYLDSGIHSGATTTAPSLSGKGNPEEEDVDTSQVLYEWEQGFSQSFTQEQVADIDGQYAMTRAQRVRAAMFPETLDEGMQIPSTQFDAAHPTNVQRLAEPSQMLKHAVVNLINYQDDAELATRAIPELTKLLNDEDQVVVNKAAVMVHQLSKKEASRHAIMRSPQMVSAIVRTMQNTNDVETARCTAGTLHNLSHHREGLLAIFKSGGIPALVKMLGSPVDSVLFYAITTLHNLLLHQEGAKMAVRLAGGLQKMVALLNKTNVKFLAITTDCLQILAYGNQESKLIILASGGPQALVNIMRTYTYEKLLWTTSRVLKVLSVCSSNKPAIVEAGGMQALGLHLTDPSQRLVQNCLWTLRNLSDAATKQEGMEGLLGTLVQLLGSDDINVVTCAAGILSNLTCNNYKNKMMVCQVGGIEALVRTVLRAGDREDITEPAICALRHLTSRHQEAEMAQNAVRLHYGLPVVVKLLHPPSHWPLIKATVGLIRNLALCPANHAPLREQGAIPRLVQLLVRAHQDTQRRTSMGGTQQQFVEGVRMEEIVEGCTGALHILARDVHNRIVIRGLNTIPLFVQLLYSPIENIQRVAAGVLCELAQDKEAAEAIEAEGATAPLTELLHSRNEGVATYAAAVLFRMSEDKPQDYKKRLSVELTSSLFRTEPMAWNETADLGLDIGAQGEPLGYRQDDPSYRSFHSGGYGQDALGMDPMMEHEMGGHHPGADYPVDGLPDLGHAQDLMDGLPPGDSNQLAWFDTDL

[2] = biological target: T2, full-length beta-Catenin (Uniprot ID P35222) (Homo sapiens, UniProt P35222); assay: Fluorescence polarization IC50 (beta-catenin / 5FAM-TCF4 10-53 competition); format: binding; conditions: fluorescence polarization; read-out: beta-Catenin FP IC50
T2 construct: 10 nM full-length beta-Catenin (Uniprot ID P35222)
T2 sequence (P35222 1-781): T1 sequence (P35222 1-781)

| Structure (SMILES) | IC50 [1] [nM] | IC50 [2] [nM] |
| --- | --- | --- |
| CCNC(=O)CC[C@H](NC(=O)[C@H](Cc1csc2ccccc12)NC(=O)[C@H](Cc1ccccc1C(F)(F)F)NC(=O)[C@]12CCN(C1)C(=O)OCCCC=CCCCC1(CCCC=CC[C@]3(CCCN3C(C)=O)C(=O)N[C@@H](CC(=O)O)C(=O)N[C@@H](CC(C)(C)C)C(=O)N1)C(=O)N[C@@H](CC(=O)O)C(=O)N[C@@H](Cc1cccc(C(=O)O)c1)C(=O)N[C@@H](CCC(=O)NCC)C(=O)N[C@@H](C)C(=O)N[C@@H](Cc1ccccc1)C(=O)N[C@@H](CC(C)C)C(=O)N2)C(N)=O (stereo partly drawn) [I-2299, Ac-PL3-Asp-Npg-B5-Asp-3COOHF-[NHEt]GlnR-Ala-Phe-Leu-PyrS2-2F3MeF-BztA-NHEt]GlnR-NH2] | 5200 | 7 |
| CC(C)COC(=O)N1CCC[C@]12CC=CCCCC1(CCCC=CCCCOC(=O)N3CC[C@@](C(=O)N[C@@H](Cc4ccccc4Cl)C(=O)N[C@@H](Cc4csc5ccccc45)C(=O)N[C@@H](C)C(N)=O)(C3)NC(=O)[C@H](CC(C)C)NC(=O)[C@H](Cc3ccccc3)NC(=O)[C@H](C)NC(=O)[C@H](C)NC(=O)[C@H](Cc3cccc(C(=O)O)c3)NC(=O)[C@H](CC(=O)O)NC1=O)NC(=O)[C@H](CC(C)(C)C)NC(=O)[C@H](CC(=O)O)NC2=O (stereo partly drawn) [I-2305, CO2iBu-PL3-Asp-Npg-B5-Asp-3COOHF-Ala-Ala-Phe-Leu-PyrS2-2C1F-BztA-Ala-NH2] | > 20000 | 65 |
| C[C@@H]1NC(=O)[C@H](C)NC(=O)[C@H](CC(=O)O)NC(=O)[C@H](CC(=O)O)NC(=O)C2(CCCC=CCCCOC(=O)N3CC[C@@](C(=O)N[C@@H](Cc4ccsc4)C(=O)N[C@@H](Cc4csc5ccccc45)C(=O)N[C@@H](CCC(N)=O)C(N)=O)(C3)NC(=O)[C@H](CC(N)=O)NC(=O)[C@H](Cc3ccccc3)NC1=O)CCCC=CCOc1cccc(c1)C(=O)N[C@@H](CC(=O)O)C(=O)N[C@@H](CC(C)(C)C)C(=O)N2 (stereo partly drawn) [I-2306, BzAm3Oallyl-Asp-Npg-B5-Asp-Asp-Ala-Ala-Phe-Asn-PyrS2-3Thi-BztA-Gln-NH2] | > 20000 | 45 |
| CC(=O)N1CCC[C@]12CC=CCCCC1(CCCC=CCCCOC(=O)N3CC[C@@](C(=O)N[C@@H](Cc4ccsc4)C(=O)N[C@@H](Cc4cccc(Br)c4)C(=O)N[C@@H](CCC(N)=O)C(N)=O)(C3)NC(=O)[C@H](CC(C)C)NC(=O)[C@H](Cc3ccccc3)NC(=O)[C@H](C)NC(=O)[C@H](C)NC(=O)[C@H](Cc3cccc(C(=O)O)c3)NC(=O)[C@H](CC(=O)O)NC1=O)NC(=O)[C@H](CC(C)(C)C)NC(=O)[C@H](CC(=O)O)NC2=O (stereo partly drawn) [I-2307, Ac-PL3-Asp-Npg-B5-Asp-3COOHF-Ala-Ala-Phe-Leu-PyrS2-3Thi-3BrF-Gln-NH2] | 8900 | 16 |
| CC(=O)N1CCC[C@]12CC=CCCCC1(CCCC=CCCCOC(=O)N3CC[C@@](C(=O)N[C@@H](Cc4ccsc4)C(=O)N[C@@H](Cc4cccc(Br)c4)C(=O)N[C@@H](C)C(N)=O)(C3)NC(=O)[C@H](C(C)C)NC(=O)[C@H](Cc3ccccc3)NC(=O)[C@H](C)NC(=O)[C@H](CCC(N)=O)NC(=O)[C@H](Cc3cccc(C(=O)O)c3)NC(=O)[C@H](CC(=O)O)NC1=O)NC(=O)[C@H](CC(C)(C)C)NC(=O)[C@H](CC(=O)O)NC2=O (stereo partly drawn) [I-2308, Ac-PL3-Asp-Npg-B5-Asp-3COOHF-Gln-Ala-Phe-Val-PyrS2-3Thi-3BrF-Ala-NH2] | 6000 | 8 |
| CC(=O)N1CCC[C@]12CC=CCCCC1(CCCC=CCCCOC(=O)N3CC[C@@](C(=O)N[C@@H](Cc4ccsc4)C(=O)N[C@@H](Cc4ccc5ccccc5c4)C(=O)N[C@@H](CCC(N)=O)C(N)=O)(C3)NC(=O)[C@H](CC(C)C)NC(=O)[C@H](Cc3ccccc3)NC(=O)[C@H](C)NC(=O)[C@H](C)NC(=O)[C@H](Cc3cccc(C(=O)O)c3)NC(=O)[C@H](CC(=O)O)NC1=O)NC(=O)[C@H](CC(C)(C)C)NC(=O)[C@H](CC(=O)O)NC2=O (stereo partly drawn) [I-2309, Ac-PL3-Asp-Npg-B5-Asp-3COOHF-Ala-Ala-Phe-Leu-PyrS2-3Thi-2NapA-Gln-NH2] | 13700 | 17 |
| CC(=O)N1CCC[C@]12CC=CCCCC1(CCCC=CCCCOC(=O)N3CC[C@@](C(=O)N[C@@H](Cc4ccsc4)C(=O)N[C@H](C(=O)N[C@@H](CCC(N)=O)C(N)=O)[C@H](C)c4ccc5ccccc5c4)(C3)NC(=O)[C@H](CC(C)C)NC(=O)[C@H](Cc3ccccc3)NC(=O)[C@H](C)NC(=O)[C@H](C)NC(=O)[C@H](Cc3cccc(C(=O)O)c3)NC(=O)[C@H](CC(=O)O)NC1=O)NC(=O)[C@H](CC(C)(C)C)NC(=O)[C@H](CC(=O)O)NC2=O (stereo partly drawn) [I-2311, Ac-PL3-Asp-Npg-B5-Asp-3COOHF-Ala-Ala-Phe-Leu-PyrS2-3Thi-RbMe2NapA-Gln-NH2] | 5200 | 5 |
| CC(=O)N1CCC[C@]12CC=CCCCC1(CCCC=CCCCOC(=O)N3CC[C@@](C(=O)N[C@@H](Cc4ccsc4)C(=O)N[C@H](C(=O)N[C@@H](C)C(N)=O)[C@H](C)c4ccc5ccccc5c4)(C3)NC(=O)[C@H](C(C)C)NC(=O)[C@H](Cc3ccccc3)NC(=O)[C@H](C)NC(=O)[C@H](CCC(N)=O)NC(=O)[C@H](Cc3cccc(C(=O)O)c3)NC(=O)[C@H](CC(=O)O)NC1=O)NC(=O)[C@H](CC(C)(C)C)NC(=O)[C@H](CC(=O)O)NC2=O (stereo partly drawn) [I-2312, Ac-PL3-Asp-Npg-B5-Asp-3COOHF-Gln-Ala-Phe-Val-PyrS2-3Thi-RbMe2NapA-Ala-NH2] | 5200 | 5 |
| CC(=O)N1CCC[C@]12CC=CCCCC1(CCCC=CCCCOC(=O)N3CC[C@@](C(=O)N[C@@H](Cc4ccsc4)C(=O)N[C@H](C(=O)N[C@@H](CCC(N)=O)C(N)=O)[C@@H](C)c4ccc5ccccc5c4)(C3)NC(=O)[C@H](CC(C)C)NC(=O)[C@H](Cc3ccccc3)NC(=O)[C@H](C)NC(=O)[C@H](C)NC(=O)[C@H](Cc3cccc(C(=O)O)c3)NC(=O)[C@H](CC(=O)O)NC1=O)NC(=O)[C@H](CC(C)(C)C)NC(=O)[C@H](CC(=O)O)NC2=O (stereo partly drawn) [I-2313, Ac-PL3-Asp-Npg-B5-Asp-3COOHF-Ala-Ala-Phe-Leu-PyrS2-3Thi-SbMe2NapA-Gln-NH2] | 24300 | 22 |

Other lines, results leading:

| IC50 [1] [nM] | IC50 [2] [nM] | Structure (SMILES) |
| --- | --- | --- |
| > 20000 | 5 | CNCCCCN(C)C(=O)CC[C@@H]1NC(=O)[C@H](Cc2cccc(C(=O)O)c2)NC(=O)[C@H](CC(=O)O)NC(=O)C2(CCCC=CCCCOC(=O)N3CC[C@@](C(=O)N[C@@H](Cc4ccsc4)C(=O)N[C@@H](Cc4csc5ccccc45)C(=O)N[C@@H](C)C(N)=O)(C3)NC(=O)[C@H](C(C)C)NC(=O)[C@H](Cc3ccccc3)NC(=O)[C@H](C)NC1=O)CCCC=CC[C@]1(CCCN1C(C)=O)C(=O)N[C@@H](CC(=O)O)C(=O)N[C@@H](CC(C)(C)C)C(=O)N2 (stereo partly drawn) [I-2301, Ac-PL3-Asp-Npg-B5-Asp-3COOHF-[Me2diaminobutane]GlnR-Ala-Phe-Val-PyrS2-3Thi-BztA-Ala-NH2] |
| 2500 | 5 | CCNC(=O)CC[C@@H]1NC(=O)[C@H](Cc2cccc(C(=O)O)c2)NC(=O)[C@H](CC(=O)O)NC(=O)C2(CCCC=CCCCOC(=O)N3CC[C@@](C(=O)N[C@@H](Cc4ccsc4)C(=O)N[C@@H](Cc4csc5ccccc45)C(=O)N[C@@H](C)C(N)=O)(C3)NC(=O)[C@H](C(C)C)NC(=O)[C@H](Cc3ccccc3)NC(=O)[C@H](C)NC1=O)CCCC=CC[C@]1(CCCN1C(C)=O)C(=O)N[C@@H](CC(=O)O)C(=O)N[C@@H](CC(C)(C)C)C(=O)N2 (stereo partly drawn) [I-2302, Ac-PL3-Asp-Npg-B5-Asp-3COOHF-[NHEt]GlnR-Ala-Phe-Val-PyrS2-3Thi-BztA-Ala-NH2] |
| 1200 | 5 | CC(=O)N1CCC[C@]12CC=CCCCC1(CCCC=CCCCOC(=O)N3CC[C@@](C(=O)N[C@@H](Cc4ccsc4)C(=O)N[C@@H](Cc4csc5ccccc45)C(=O)N[C@@H](C)C(N)=O)(C3)NC(=O)[C@H](C(C)C)NC(=O)[C@H](Cc3ccccc3)NC(=O)[C@H](C)NC(=O)[C@H](CCC(=O)N(C)C)NC(=O)[C@H](Cc3cccc(C(=O)O)c3)NC(=O)[C@H](CC(=O)O)NC1=O)NC(=O)[C@H](CC(C)(C)C)NC(=O)[C@H](CC(=O)O)NC2=O (stereo partly drawn) [I-2303, Ac-PL3-Asp-Npg-B5-Asp-3COOHF-[NMe2]GlnR-Ala-Phe-Val-PyrS2-3Thi-BztA-Ala-NH2] |
| 8900 | 18 | CC(=O)N1CCC[C@]12CC=CCCCC1(CCCC=CCCCOC(=O)N3CC[C@@](C(=O)N[C@@H](Cc4ccsc4)C(=O)N[C@@H](Cc4ccc5ccccc5c4)C(=O)N[C@@H](C)C(N)=O)(C3)NC(=O)[C@H](C(C)C)NC(=O)[C@H](Cc3ccccc3)NC(=O)[C@H](C)NC(=O)[C@H](CCC(N)=O)NC(=O)[C@H](Cc3cccc(C(=O)O)c3)NC(=O)[C@H](CC(=O)O)NC1=O)NC(=O)[C@H](CC(C)(C)C)NC(=O)[C@H](CC(=O)O)NC2=O (stereo partly drawn) [I-2310, Ac-PL3-Asp-Npg-B5-Asp-3COOHF-Gln-Ala-Phe-Val-PyrS2-3Thi-2NapA-Ala-NH2] |
